The values below come from patent publication US20230064990A1, “DOSING REGIMENS AND METHODS FOR TREATING CANCER” (Panbela Therapeutics, Inc., priority 2020, published 2023).

Data set [1] has as its system human L3.6pl pancreatic cancer cells. Description: Orthotopic implantation of L3.6pl pancreatic cancer cells into nude mice. As to conditions: Study 3, GEM 100 mg/kg 2×/wk ip, (S,S)-(HO)2DEHSPM 25 mg/kg 3×/wk.
Procedure: These studies examined the anti-neoplastic effects of subcutaneous administration of (S,S)-(HO)2DEHSPM following orthotopic implantation of human L3.6pl pancreatic cancer cells into the pancreas of nude mice.
L3.6pl cells were injected into the pancreas of nude mice; treatment was initiated by group (n=10/group planned) 7-10 days later following establishment of tumors:
Study 1: saline (control), (S,S)-(HO)2DEHSPM (25 mg/kg), (S,S)-(HO)2DEHSPM (50 mg/kg), and (S,S)-(HO)2DEHSPM (100 mg/kg) daily (QD) for 4 to 6 weeks (wks).
Study 2: saline (control), (S,S)-(HO)2DEHSPM (25 mg/kg QD), (S,S)-(HO)2DEHSPM (25 mg/kg 3×/wk), (S,S)-(HO)2DEHSPM (15 mg/kg 3×/wk), and (S,S)-(HO)2DEHSPM (5 mg/kg 3×/wk) for 4 to 6 wks.
Study 3: saline (control), gemcitabine (GEM) (100 mg/kg 2×/wk, intraperitoneally), (S,S)-(HO)2DEHSPM (25 mg/kg 3×/wk), and (S,S)-(HO)2DEHSPM+GEM for 4 to 6 wks.
Data set [2] in a line: Phase 1a/1b study in combination with G and A, safety. It counts as in vivo, human. As to conditions: N=20. How it is done: G (1000 mg/m^2) and A (125 mg/m^2) were administered intravenously on Days 1, 8, and 15 of each cycle. […] PK was evaluated on day 1 of cycle 1. Efficacy was assessed by CA19-9 levels, objective response was assessed by RECIST criteria, progression-free survival (PFS) and overall survival (OS).
This is a multicenter, open label, Phase 1a/1b study to evaluate to evaluate the safety, tolerability, pharmacokinetics and efficacy of (S,S)-(HO)2DEHSPM when administered in combination with G and A as first-line therapy in pancreatic cancer patients previously untreated for metastatic disease. The objective was to determine a recommended Phase 2 dose. Using a modified 3+3 dose escalation scheme, cohorts of subjects were dosed with subcutaneous injections of (S,S)-(HO)2DEHSPM at 0.2, 0.4 or 0.6 mg/kg days 1-5 of each 28-day cycle. Gemcitabine (1000 mg/m^2) and A (125 mg/m^2) were administered intravenously on Days 1, 8, and 15 of each cycle. […] PK was evaluated on day 1 of cycle 1. Efficacy was assessed by objective response rate (ORR) using RECIST criteria and by changes in CA19-9 levels. Subjects were treated until disease progression or the development of dose-limiting toxicity. Based upon initial safety findings and preliminary signals of efficacy, the protocol was amended to evaluate progression-free survival (PFS) and overall survival (OS) and expand the study to up to 36 subjects at the recommended Phase 2 dose. To date, 20 subjects were enrolled in cohorts 1-3 and evaluated for dose limiting toxicity and early signals of efficacy.

Data set [3] deals with PDA. As to conditions: pivotal trials; cited from earlier work.

In the case of `Nc1ccn([C@@H]2O[C@H](CO)[C@@H](O)C2(F)F)c(=O)n1` [GEM, gemcitabine, reference compound], the “decreases in body weight” value in data set [1] (4 to 6 wks) is given as 18.7%. Besides, in data set [1] (compared with controls), the “decreases in pancreas weight” value amounted to 24.7% and the “decreases in tumor volume” value was 37.8%. Moreover, in data set [2], the “Grade ≥3 Elevated LFTs related to the named study medication (subjects)” value is 1 (G).

For the compound FOLFIRINOX, in data set [3], the “DCR, historical rate” value is given as 70% and the “ORR, historical rate” value was 32%.
